The results in this text go back to patent US9169252B2 (BRISTOL-MYERS SQUIBB COMPANY, priority 2014, dated 2015).

What is called EC50 is the concentration needed to bring the measured effect to its halfway point. What is called IC50 is the midpoint of a concentration-inhibition curve.

Read-outs that look alike come from different tables or passages of the source.

Test [1] concerns TLR2 induced IL-6 in peripheral blood mononuclear cells (PBMCs). In words: PBMC TLR2 Induced IL-6 Assay. Format: cell-based, human. The following applies: PBMC TLR2 Induced IL-6 Assay, lipoteichoic acid stimulation, IL-6 by ELISA, read-out: Cell EC50. Summed up:
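Lipoteichoic acid at 10 µg/ml served as TLR2 stimulus for 5 hours, following a 30-minute compound pretreatment at 37° C. Cells were Ficoll-isolated human PBMCs, 250000 cells/well, cultured in RPMI plus 10% heat-inactivated FCS.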
(ELISA stands for enzyme-linked immunosorbent assay.)

The target in a further test is IRAK4 (Homo sapiens (Human), UniProt Q9NWZ3). Put plainly: IRAK4 Inhibition Assay. The conditions noted are these: IRAK4 Inhibition Assay; ATP 500 μM; read-out: IRAK4 IC50. Format: biochemical. The essentials:
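Mobility-shift readout: fluorescent substrate and phosphoproduct resolved electrophoretically on Caliper LabChip 3000 after EDTA quench (35 mM). Enzyme reaction of IRAK4, substrates and test compound ran 60 min at room temperature.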

IRAK4, sequence (Q9NWZ3 whole entry, species assumed): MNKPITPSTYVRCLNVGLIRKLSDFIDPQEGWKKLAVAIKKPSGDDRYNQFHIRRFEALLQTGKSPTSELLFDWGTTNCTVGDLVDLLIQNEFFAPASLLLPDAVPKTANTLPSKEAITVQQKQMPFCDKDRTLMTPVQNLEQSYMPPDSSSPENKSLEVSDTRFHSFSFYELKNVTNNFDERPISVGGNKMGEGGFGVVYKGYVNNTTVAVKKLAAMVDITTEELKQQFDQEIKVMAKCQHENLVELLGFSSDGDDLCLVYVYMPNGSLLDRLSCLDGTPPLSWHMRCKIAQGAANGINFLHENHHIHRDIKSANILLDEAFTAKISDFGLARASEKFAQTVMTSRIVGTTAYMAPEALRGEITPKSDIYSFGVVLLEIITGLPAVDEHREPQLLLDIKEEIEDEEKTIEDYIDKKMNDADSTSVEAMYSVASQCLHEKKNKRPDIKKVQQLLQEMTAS

With `CC(C)Nc1cc(-n2ccc3cc(C#N)cnc32)ncc1C(=O)N[C@H]1CC[C@H](C(=O)NC(C)C)CC1` [Example 90, 6-(5-cyano-1H-pyrrolo[2,3-b]pyridin-1-yl)-4-(isopropylamino)-N-((trans)-4-(isopropylcarbamoyl)cyclohexyl) nicotinamide], in test [1] (Homo sapiens, PBMC), the EC50 amounted to 0.041 µM. Also, the IC50 at IRAK4 amounted to 0.0019 µM.

As to `CC(C)Nc1cc(-n2ccc3cc(C#N)cnc32)ncc1C(=O)N[C@H]1CC[C@H](C(=O)NC2CC2)CC1` [Example 91, 6-(5-cyano-1H-pyrrolo[2,3-b]pyridin-1-yl)-N-((trans)-4-(cyclopropylcarbamoyl)cyclohexyl)-4-(isopropylamino)nicotinamide], the EC50 in test [1] (Homo sapiens, PBMC) is 0.032 µM. For the same molecule, on IRAK4, the IC50 stood at 0.002 µM.

For the molecule `CCNC(=O)[C@H]1CC[C@H](NC(=O)c2cnc(-n3ccc4cc(C#N)cnc43)cc2NC(C)C)CC1` [Example 92, 6-(5-cyano-1H-pyrrolo[2,3-b]pyridin-1-yl)-N-((trans)-4-(ethylcarbamoyl)cyclohexyl)-4-(isopropylamino)nicotinamide], the EC50 in test [1] (Homo sapiens, PBMC) came to 0.079 µM. In addition, the 50% inhibitory concentration (IC50) on IRAK4 was 0.0017 µM.

For `CNC(=O)[C@H]1CC[C@H](NC(=O)c2cnc(-n3ccc4cc(C#N)cnc43)cc2NCC(C)(C)O)CC1` [Example 93, 6-(5-cyano-1H-pyrrolo[2,3-b]pyridin-1-yl)-4-((2-hydroxy-2-methylpropyl)amino)-N-((trans)-4-(methylcarbamoyl)cyclohexyl) nicotinamide], the EC50 in test [1] is 0.562 µM. The 50% inhibitory concentration (IC50) at IRAK4 was found to be 0.0084 µM.

For `CC(C)Nc1cc(-n2ccc3cc(C#N)cnc32)ncc1C(=O)N[C@H]1CC[C@H](C(C)(C)O)CC1` [Example 96, 6-(5-cyano-1H-pyrrolo[2,3-b]pyridin-1-yl)-N-((trans)-4-(2-hydroxypropan-2-yl)cyclohexyl)-4-(isopropylamino)nicotinamide], the EC50 in test [1] (Homo sapiens, PBMC) is 0.038 µM. Further, the IC50 at IRAK4 turned out to be 0.0014 µM.

In the case of `COC(=O)N[C@H]1CC[C@H](NC(=O)c2cnc(-n3ccc4cc(C#N)cnc43)cc2NC(C)C)CC1` [Example 97, methyl((trans)-4-(6-(5-cyano-1H-pyrrolo[2,3-b]pyridin-1-yl)-4-(isopropylamino)nicotinamido)cyclohexyl)carbamate], the EC50 in test [1] (Homo sapiens, PBMC) is 0.108 µM. The IC50 on IRAK4 is 0.0049 µM.

In the case of `CC(C)Nc1cc(-n2ccc3cc(C#N)cnc32)ncc1C(=O)N[C@H]1CC[C@H](O)CC1` [Example 98, 6-(5-cyano-1H-pyrrolo[2,3-b]pyridin-1-yl)-N-((trans)-4-hydroxycyclohexyl)-4-(isopropylamino)nicotinamide], the EC50 in test [1] (Homo sapiens, PBMC) stood at 0.176 µM. Also, the IC50 on IRAK4 came out at 0.0033 µM.

As for `CC(C)Nc1cc(-n2ccc3cc(C#N)cnc32)ncc1C(=O)N[C@H]1CC[C@](C)(O)CC1` [Example 99, 6-(5-cyano-1H-pyrrolo[2,3-b]pyridin-1-yl)-N-((trans)-4-hydroxy-4-methylcyclohexyl)-4-(isopropylamino)nicotinamide], in test [1] (Homo sapiens, PBMC), the concentration for a half-maximal effect (EC50) was 0.223 µM. Besides, on IRAK4, the IC50 was 0.0046 µM.

For the molecule `CCNc1cc(-n2ccc3cc(C#N)cnc32)ncc1C(=O)N[C@H]1CC[C@H](C(C)(C)O)CC1` [Example 100, 6-(5-cyano-1H-pyrrolo[2,3-b]pyridin-1-yl)-4-(ethylamino)-N-((trans)-4-(2-hydroxypropan-2-yl)cyclohexyl)nicotinamide], the EC50 in test [1] (Homo sapiens, PBMC) was 0.095 µM. Moreover, the IC50 on IRAK4 came to 0.0025 µM.

For the molecule `CS[C@H]1CC[C@H](NC(=O)c2cnc(-n3ccc4cc(C#N)cnc43)cc2NC(C)C)CC1` [Example 101, 6-(5-Cyano-1H-pyrrolo[2,3-b]pyridin-1-yl)-4-(isopropylamino)-N-((trans)-4-(methylthio)cyclohexyl)nicotinamide], the EC50 in test [1] (Homo sapiens, PBMC) was 0.112 µM. The IC50 on IRAK4 amounted to 0.0078 µM.

For `CC(C)Nc1cc(-n2ccc3cc(C#N)cnc32)ncc1C(=O)N[C@H]1CC[C@H](S(C)(=O)=O)CC1` [Example 102, 6-(5-Cyano-1H-pyrrolo[2,3-b]pyridin-1-yl)-4-(isopropylamino)-N-((trans)-4-(methylsulfonyl)cyclohexyl)nicotinamide], the 50% effective concentration (EC50) in test [1] (Homo sapiens, PBMC) is 0.047 µM. Further, on IRAK4, the IC50 was found to be 0.0036 µM.

As to `CS(=O)(=O)[C@H]1CC[C@H](NC(=O)c2cnc(-n3ccc4cc(C#N)cnc43)cc2NC2CCOCC2)CC1` [Example 103, 6-(5-Cyano-1H-pyrrolo[2,3-b]pyridin-1-yl)-N-((trans)-4-(methylsulfonyl)cyclohexyl)-4-((tetrahydro-2H-pyran-4-yl)amino)nicotinamide], the EC50 in test [1] (Homo sapiens, PBMC) was determined as 0.125 µM. Also, the concentration for half-maximal inhibition (IC50) at IRAK4 was 0.0035 µM.

On to `CS(=O)(=O)[C@H]1CC[C@H](NC(=O)c2cnc(-n3ccc4cc(C#N)cnc43)cc2NC2CC2)CC1` [Example 104, 6-(5-Cyano-1H-pyrrolo[2,3-b]pyridin-1-yl)-4-(cyclopropylamino)-N-((trans)-4-(methylsulfonyl)cyclohexyl)nicotinamide], for which the EC50 in test [1] (Homo sapiens, PBMC) came to 0.067 µM. The IC50 on IRAK4 is 0.0017 µM.

For `CS(=O)(=O)[C@H]1CC[C@H](NC(=O)c2cnc(-n3ccc4cc(C#N)cnc43)cc2Nc2cccc(C(N)=O)c2)CC1` [Example 105, 4-((3-Carbamoylphenyl)amino)-6-(5-cyano-1H-pyrrolo[2,3-b]pyridin-1-yl)-N-((trans)-4-(methylsulfonyl)cyclohexyl)nicotinamide], in test [1] (Homo sapiens, PBMC), the EC50 worked out at 0.437 µM. Moreover, the half-maximal inhibitory concentration (IC50) on IRAK4 worked out at 0.0039 µM.

For `CC(CF)Nc1cc(-n2ccc3cncnc32)ncc1C(=O)NC[C@@H](F)C(C)(C)O` (stereo partly drawn) [Example 113, N—((R)-2-Fluoro-3-hydroxy-3-methylbutyl)-4-((1-fluoropropan-2-yl)amino)-6-(7H-pyrrolo[2,3-d]pyrimidin-7-yl)nicotinamide], in test [1] (Homo sapiens, PBMC), the concentration giving a half-maximal response (EC50) amounted to 0.222 µM. On IRAK4, the concentration for half-maximal inhibition (IC50) turned out to be 0.0019 µM.

Consider `C[C@H](CF)Nc1cc(-n2ccc3cncnc32)ncc1C(=O)NC[C@@H](F)C(C)(C)O` [Example 115, N—((R)-2-fluoro-3-hydroxy-3-methylbutyl)-4-(((R)-1-fluoropropan-2-yl)amino)-6-(7H-pyrrolo[2,3-d]pyrimidin-7-yl)nicotinamide], for which the EC50 in test [1] (Homo sapiens, PBMC) worked out at 0.082 µM. Moreover, the IC50 at IRAK4 was 0.0033 µM.

For `C[C@@H](CF)Nc1cc(-n2ccc3cncnc32)ncc1C(=O)NC[C@@H](F)C(C)(C)O` [Example 116, N—((R)-2-fluoro-3-hydroxy-3-methylbutyl)-4-(((S)-1-fluoropropan-2-yl)amino)-6-(7H-pyrrolo[2,3-d]pyrimidin-7-yl)nicotinamide], in test [1] (Homo sapiens, PBMC), the 50% effective concentration (EC50) was determined as 0.133 µM. Also, the IC50 at IRAK4 came to 0.0062 µM.

For `C[C@@H](CF)Nc1cc(-n2ccc3cc(C#N)cnc32)ncc1C(=O)NC[C@@H](F)C(C)(C)O` [Example 117, 6-(5-cyano-1H-pyrrolo[2,3-b]pyridin-1-yl)-N—((R)-2-fluoro-3-hydroxy-3-methylbutyl)-4-(((S)-1-fluoropropan-2-yl)amino)nicotinamide], in test [1] (Homo sapiens, PBMC), the EC50 worked out at 0.028 µM. The IC50 at IRAK4 was 0.0024 µM.

In the case of `C[C@H](CF)Nc1cc(-n2ccc3cc(C#N)cnc32)ncc1C(=O)NC[C@@H](F)C(C)(C)O` [Example 118, 6-(5-cyano-1H-pyrrolo[2,3-b]pyridin-1-yl)-N—((R)-2-fluoro-3-hydroxy-3-methylbutyl)-4-(((R)-1-fluoropropan-2-yl)amino)nicotinamide], the concentration giving a half-maximal response (EC50) in test [1] (Homo sapiens, PBMC) was 0.018 µM. Besides, at IRAK4, the IC50 worked out at 0.0018 µM.

On to `C[C@@H](CF)Nc1cc(-n2ccc3cc(C#N)cnc32)ncc1C(=O)NCCC(C)(C)O` [Example 119, (S)-6-(5-cyano-1H-pyrrolo[2,3-b]pyridin-1-yl)-4-((1-fluoropropan-2-yl)amino)-N-(3-hydroxy-3-methylbutyl)nicotinamide], for which the EC50 in test [1] (Homo sapiens, PBMC) was found to be 0.091 µM. In addition, the half-maximal inhibitory concentration (IC50) at IRAK4 stood at 0.0044 µM.

Turning to `C[C@H](CF)Nc1cc(-n2ccc3cc(C#N)cnc32)ncc1C(=O)NCCC(C)(C)O` [Example 120, (R)-6-(5-cyano-1H-pyrrolo[2,3-b]pyridin-1-yl)-4-((1-fluoropropan-2-yl)amino)-N-(3-hydroxy-3-methylbutyl)nicotinamide], in test [1] (Homo sapiens, PBMC), the EC50 amounted to 0.105 µM. The IC50 at IRAK4 is 0.0051 µM.

`C[C@@H](CF)Nc1cc(-n2ncc3cc(C#N)cnc32)ncc1C(=O)NC[C@@H](F)C(C)(C)O` [Example 121, 6-(5-cyano-1H-pyrazolo[3,4-b]pyridin-1-yl)-N—((R)-2-fluoro-3-hydroxy-3-methylbutyl)-4-(((S)-1-fluoropropan-2-yl)amino) nicotinamide]: the concentration giving a half-maximal response (EC50) in test [1] (Homo sapiens, PBMC) stood at 0.112 µM. For the same molecule, the IC50 on IRAK4 worked out at 0.0052 µM.

On to `CNC(=O)[C@H]1CC[C@H](NC(=O)c2cnc(-n3ncc4cc(C#N)cnc43)cc2N[C@@H](C)CF)CC1` [Example 122, 6-(5-cyano-1H-pyrazolo[3,4-b]pyridin-1-yl)-4-(((S)-1-fluoropropan-2-yl)amino)-N-((1r,4S)-4-(methylcarbamoyl)cyclohexyl)nicotinamide], for which, in test [1] (Homo sapiens, PBMC), the half-maximal effective concentration (EC50) is 0.501 µM. In addition, at IRAK4, the 50% inhibitory concentration (IC50) was found to be 0.016 µM.

For `CCNc1cc(-n2ccc3cc(C(N)=O)cnc32)ncc1C(=O)NC[C@@H](F)C(C)(C)O` [Example 123, (R)-1-(4-(Ethylamino)-5-((2-fluoro-3-hydroxy-3-methylbutyl)carbamoyl)pyridin-2-yl)-1H-pyrrolo[2,3-b]pyridine-5-carboxamide], in test [1] (Homo sapiens, PBMC), the concentration giving a half-maximal response (EC50) was 0.128 µM. The 50% inhibitory concentration (IC50) at IRAK4 was 0.0045 µM.

In the case of `CC(C)(O)[C@H](F)CNC(=O)c1cnc(-n2ccc3cc(C(N)=O)cnc32)cc1NC1CCC1` [Example 124, (R)-1-(4-(Cyclobutylamino)-5-((2-fluoro-3-hydroxy-3-methylbutyl)carbamoyl)pyridin-2-yl)-1H-pyrrolo[2,3-b]pyridine-5-carboxamide], the concentration for a half-maximal effect (EC50) in test [1] (Homo sapiens, PBMC) is 0.119 µM. Besides, on IRAK4, the IC50 was 0.0048 µM.
